From patent US9095598B2, “Stilbenoid derivatives and their uses” (The Board of Trustees of the University of Arkansas, priority 2010, dated 2015)
Like-named read-outs stand apart in the source and are kept apart here.

Assays:
human CB2 = biological target: T1, human CB2 (Homo sapiens, UniProt P34972); assay: CB2 receptor binding, CHO-hCB2 membranes, 3H-CP 55,940 displacement; settings: 0.2 nM 3H-CP 55,940, 90 min room temperature
T1 construct: expressed in transfected cells; host or cells: CHO cells, stably transformed; membrane preparations
Experimental: (§1) Membrane preparations were prepared from mouse brain to examine CB1 binding. For CB2 binding, membrane preparations were prepared from CHO cells stably transformed with human CB2.

[1] = tested on: sepsis-induced renal injury (CLP); assay: Murine cecal ligation and puncture (CLP) model of sepsis-induced renal injury; format: in vivo, mice; settings: 30 mg/kg i.p. 30 min prior to and 6 hr post CLP; 18 hr post CLP
From the text: Control (sham) mice underwent surgery but not CLP. Each treatment group contained 4-5 mice. Renal ONOO^− generation (rhodamine fluorescence) and renal peritubular capillary perfusion were quantified using intravital video microscopy (IVVM) on anesthetized mice in each of the treatment groups.

CB1 receptors [2] = format: biochemical, mouse; settings: 10 μM, 30 min at 30° C.
human recombinant UGT1A1 [3] = biological target: T2, human recombinant UGT1A1 (Homo sapiens, UniProt P22309); settings: 250 μM
T2 sequence (P22309 26-533): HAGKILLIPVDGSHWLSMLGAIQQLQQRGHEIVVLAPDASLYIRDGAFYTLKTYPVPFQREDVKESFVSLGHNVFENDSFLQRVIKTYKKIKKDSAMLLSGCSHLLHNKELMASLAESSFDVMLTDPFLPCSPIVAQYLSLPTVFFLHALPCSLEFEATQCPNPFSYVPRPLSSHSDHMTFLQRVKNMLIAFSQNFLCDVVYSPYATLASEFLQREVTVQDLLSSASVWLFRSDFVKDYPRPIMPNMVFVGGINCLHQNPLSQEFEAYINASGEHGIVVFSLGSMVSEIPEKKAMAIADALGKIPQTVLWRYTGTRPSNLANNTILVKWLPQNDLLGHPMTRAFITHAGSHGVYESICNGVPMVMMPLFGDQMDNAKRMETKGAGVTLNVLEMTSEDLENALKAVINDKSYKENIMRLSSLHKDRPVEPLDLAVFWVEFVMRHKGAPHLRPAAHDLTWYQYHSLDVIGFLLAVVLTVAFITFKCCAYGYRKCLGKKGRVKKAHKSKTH
Experimental: (§2) Eight human recombinant UGT1A isoforms (UGT1A1, 1A3, 1A4, 1A6, 1A7, 1A8, 1A9, and 1A10; 5 μg) expressed as His-tag proteins in baculovirus-infected Sf9 insect cells and human liver microsomes (from one donor; HL2; 50 μg) and human intestinal microsomes (from two donors; HI36 and HI41; 50 μg) were evaluated for their ability to glucuronidate these four compounds. The concentrations of the substrate and co-substrate (i.e., UDP-GlcUA) were 250 μM and 4 mM, respectively. Glucuronidation products were analyzed by HPLC and LCMS/MS.
(§3) The kinetic constants of the glucuronidation reactions using recombinant human UGT1A1 and UGT1A10 were determined by measuring the enzyme activity in the presence of increasing concentrations of substrate (see FIG. 2).

[4] = biological target: T3, human recombinant UGT1A10 (Homo sapiens, UniProt Q9HAW8); settings: 250 μM
T3 sequence (Q9HAW8 26-530): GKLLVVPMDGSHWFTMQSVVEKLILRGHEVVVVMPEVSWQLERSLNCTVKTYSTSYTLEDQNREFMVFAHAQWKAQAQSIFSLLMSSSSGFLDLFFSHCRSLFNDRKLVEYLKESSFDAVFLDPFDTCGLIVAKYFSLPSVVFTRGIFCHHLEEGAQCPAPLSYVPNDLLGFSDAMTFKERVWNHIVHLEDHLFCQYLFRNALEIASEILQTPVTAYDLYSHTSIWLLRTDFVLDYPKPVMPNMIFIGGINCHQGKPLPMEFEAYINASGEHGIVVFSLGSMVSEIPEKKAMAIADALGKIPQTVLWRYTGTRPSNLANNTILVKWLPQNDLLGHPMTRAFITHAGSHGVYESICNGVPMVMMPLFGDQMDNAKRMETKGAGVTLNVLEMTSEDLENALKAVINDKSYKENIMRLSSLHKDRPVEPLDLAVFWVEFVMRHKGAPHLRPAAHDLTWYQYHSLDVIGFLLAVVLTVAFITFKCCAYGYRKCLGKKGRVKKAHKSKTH
Experimental: as §2, §3

[5] = biological target: T4, CB1 receptors (mouse brain-mCB1 membranes) (Mus musculus, UniProt P47746); assay: CB1 receptor binding, mouse brain membranes, 3H-CP 55,940 displacement
T4 construct: from tissue; host or cells: mouse brain membranes
Experimental: as §1

CB1 receptors [6] = biological target: T5, CB1 receptors (Mus musculus, UniProt P47746); format: biochemical
T5 construct: from tissue; host or cells: mouse brain membranes

human recombinant UGT1A1 [7] = biological target: T2, human recombinant UGT1A1; assay: Glucuronidation by recombinant human UGT1A1 (activity screen and kinetic constants); settings: for glucuronide formation, in words (FIG. 1): substrate 250 μM, UDP-GlcUA 4 mM; for Kinetics (model): — = No activity
Experimental: as §2, §3

[8] = biological target: T3, human recombinant UGT1A10; assay: Glucuronidation by recombinant human UGT1A10 (activity screen and kinetic constants); settings: for glucuronide formation, in words (FIG. 1): substrate 250 μM, UDP-GlcUA 4 mM
Experimental: as §2, §3

[9] = product 4′-glucuronide (4′G), USI = substrate inhibition

T1 sequence (P34972 whole entry): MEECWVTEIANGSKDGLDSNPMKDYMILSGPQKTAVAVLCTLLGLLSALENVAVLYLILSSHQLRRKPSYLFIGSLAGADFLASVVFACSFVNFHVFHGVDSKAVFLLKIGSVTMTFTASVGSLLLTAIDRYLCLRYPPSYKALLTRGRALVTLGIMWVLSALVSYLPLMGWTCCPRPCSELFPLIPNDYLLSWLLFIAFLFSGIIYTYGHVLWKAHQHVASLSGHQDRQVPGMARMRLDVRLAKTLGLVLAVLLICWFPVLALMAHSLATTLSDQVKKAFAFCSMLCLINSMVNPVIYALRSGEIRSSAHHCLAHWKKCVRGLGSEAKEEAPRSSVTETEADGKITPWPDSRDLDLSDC
T5 sequence (P47746 whole entry): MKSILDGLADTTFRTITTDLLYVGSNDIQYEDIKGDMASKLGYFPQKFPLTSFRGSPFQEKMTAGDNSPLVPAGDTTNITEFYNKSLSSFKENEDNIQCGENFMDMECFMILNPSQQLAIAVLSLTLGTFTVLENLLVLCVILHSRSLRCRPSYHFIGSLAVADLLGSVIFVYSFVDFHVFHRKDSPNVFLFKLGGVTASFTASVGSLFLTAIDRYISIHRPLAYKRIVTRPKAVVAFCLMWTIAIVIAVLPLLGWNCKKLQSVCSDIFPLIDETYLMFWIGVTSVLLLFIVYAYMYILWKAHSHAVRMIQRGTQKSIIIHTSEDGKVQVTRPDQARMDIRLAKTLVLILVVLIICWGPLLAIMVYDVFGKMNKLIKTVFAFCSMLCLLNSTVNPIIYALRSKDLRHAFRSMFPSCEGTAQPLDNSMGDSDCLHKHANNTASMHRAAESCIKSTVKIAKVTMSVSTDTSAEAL
T4 sequence (P47746 whole entry): as above

For `Oc1ccc(/C=C/c2cc(O)cc(O)c2)cc1` [tRes, trans-resveratrol], the Ki (human CB2) was 65.5 ± 12 µM, the “RNS generation in the kidney (rhodamine fluorescence, IVVM)” value [1] was “blocked RNS generation in the kidney” and the “renal peritubular capillary perfusion (IVVM)” value [1] was “preserved renal capillary perfusion”. For the same molecule, the “effect on basal G-protein activity, in words” value (CB1 receptors [2]) was “little effect”, the “glucuronide formation, in words (FIG. 1)” value (human recombinant UGT1A1 [3]) was “glucuronidated to 3-O— and 4′-O-Glucs” and the “glucuronide formation, in words (FIG. 1)” value [4] was “glucuronidated to 3-O— and 4′-O-Glucs”.

With trans-arachidin-1 [tA1] the Ki (human CB2) was 12.6 ± 1.7 µM, the “enhancement of binding affinity for CB1 (isoprenyl plus additional hydroxyl group)” value [5] was 2 fold and the “increase (shift-to-the-right) in the ED50 of CP-55,940” value (CB1 receptors [6]; 10 μM tA-1) was 7 fold. The “maximal response produced by CP-55,940 in presence of test compound” value (CB1 receptors [6]; with tA-1 (10 μM)) was 0.22+/−0.04 pmole/mg protein, the “effect on basal G-protein activity, in words” value (CB1 receptors [2]) was “markedly reduced” and the “glucuronide formation, in words (FIG. 1)” value (human recombinant UGT1A1 [7]) was “completely blocked formation of any Gluc”. For the same molecule, the “Kinetics (model)” value [8, 9] was “substrate inhibition kinetics and USI” and the “glucuronide formation, in words (FIG. 1)” value [8] was “formation of the 3-O-Gluc”.

In the case of `CC(C)/C=C/c1c(O)cc(/C=C/c2ccc(O)cc2)cc1O` [tA3, trans-arachidin-3], the Ki (human CB2) is reported as 11.3 ± 0.6 µM, the “effect on basal G-protein activity, in words” value (CB1 receptors [2]) is reported as “little effect” and the “Kinetics (model)” value (human recombinant UGT1A1 [7]; product 3-glucuronide (3G)) is reported as “M-M”. The “Kinetics (model)” value (human recombinant UGT1A1 [7]; product 4′-glucuronide (4′G)) was “M-M”, the “glucuronide formation, in words (FIG. 1)” value (human recombinant UGT1A1 [7]) was “significant inhibition of 3-O-glucuronidation” and the “Kinetics (model)” value [8, 9] was “USI”. For the same molecule, the “Kinetics (model)” value ([8]; product 4′-glucuronide (4′G), USI = substrate inhibition, listed as 1A3) was “substrate inhibition kinetics” and the “glucuronide formation, in words (FIG. 1)” value [8] was “significant inhibition of 3-O-glucuronidation”.

`CC1=CC[C@@H]2[C@@H](C1)c1c(O)cc(CC#CCCCNS(C)(=O)=O)cc1OC2(C)C` [O-2050, reference compound] was tested, and the “effect of co-incubation on CP-55,940 stimulation and AM251 inhibition of G-protein activity” value (CB1 receptors [6]; data not shown) was “blocked”.

With `CCCCCCC(C)(C)c1ccc([C@@H]2C[C@H](O)CC[C@H]2CCCO)c(O)c1` [CP-55,940, reference compound] the “effect on G-protein activity, in words” value (CB1 receptors [6]; 1 μM, 30 min at 30° C.) was “stimulated” and the “maximal response produced by CP-55,940” value (CB1 receptors [6]; CP-55,940 alone) was 0.34+/−0.03 pmole/mg protein.

With `Oc1cc(O)cc(/C=C/c2ccc(O)c(O)c2)c1` [tPice, trans-piceatannol] the “effect on basal G-protein activity, in words” value (CB1 receptors [2]) was “markedly reduced”, the “Kinetics (model)” value (human recombinant UGT1A1 [7]; product 3-glucuronide (3G)) was “M-M” and the “Kinetics (model)” value (human recombinant UGT1A1 [7]; product 4′-glucuronide (4′G)) was “M-M”. The “Kinetics (model)” value ([8]; product 3-glucuronide (3G), — = No activity) was “M-M” and the “Kinetics (model)” value [8, 9] was “Hill”.
